Assay results reported in ChEMBL document CHEMBL3508140 (2016).
Values belong to the compound of their own block, whether it stands above or below them.

Legend:
[1] = Recovery of 7-deoxy doxorubicin-aglycone following intraperitoneal epirubicin at 4 mg.Kg-1 dose in mouse; assay type: ADME, organism-based, CD-1, Plasma; settings: in vivo, ip
[2] = Recovery of 7-deoxy doxorubicin-aglycone following intravenous epirubicin at 4 mg.Kg-1 dose in rat; assay type: ADME, organism-based, SD, Plasma; settings: in vivo
[3] = Recovery of 7-deoxy doxorubicin-aglycone following intraperitoneal epirubicin at 4 mg.Kg-1 dose in hamster; assay type: ADME, organism-based, Cricetulus griseus, Plasma; settings: chinese hamster, in vivo, ip
[4] = Recovery of 7-deoxy doxorubicin-aglycone following intravenous epirubicin at 4 mg.Kg-1 dose in rabbit; assay type: ADME, organism-based, Oryctolagus cuniculus, New Zealand White, Plasma; settings: in vivo
[5] = Recovery of 7-deoxy doxorubicin-aglycone following intravenous epirubicin at 1.5 mg.Kg-1 dose in man; assay type: ADME, organism-based, Plasma; settings: human, in vivo
[6] = Detection of 7-deoxy epirubicin-aglycone in plasma following single intravenous epirubicin at 10 mg.Kg-1 dose in female mouse bearing colon tumor; assay type: ADME, organism-based, BALB/c; settings: in vivo
[7] = Detection of 7-deoxy doxorubicin-aglycone in plasma following single intravenous doxorubicin at 10 mg.Kg-1 dose in female mouse bearing colon tumor; assay type: ADME, organism-based, BALB/c; design: dose 10 mg.Kg-1, dosed compound id 2.46809e+06, dosed compound name Doxorubicin, gender F, regimen Single, route intravenous, sampling time 48 h; settings: in vivo
[8] = Detection of 7-deoxy epirubicin-aglycone in heart following single intravenous epirubicin at 10 mg.Kg-1 dose in female mouse bearing colon tumor; assay type: ADME, organism-based, BALB/c; settings: in vivo
[9] = Detection of 7-deoxy doxorubicin-aglycone in heart following single intravenous doxorubicin at 10 mg.Kg-1 dose in female mouse bearing colon tumor; assay type: ADME, organism-based, BALB/c; design: dose 10 mg.Kg-1, dosed compound id 2.46809e+06, dosed compound name Doxorubicin, gender F, regimen Single, route intravenous, sampling time 48 h; settings: in vivo
[10] = Detection of 7-deoxy epirubicin-aglycone in tumor following single intravenous epirubicin at 10 mg.Kg-1 dose in female mouse bearing colon tumor; assay type: ADME, organism-based, BALB/c, Neoplasm; settings: in vivo
[11] = Detection of 7-deoxy doxorubicin-aglycone in tumor following single intravenous doxorubicin at 10 mg.Kg-1 dose in female mouse bearing colon tumor; assay type: ADME, organism-based, BALB/c, Neoplasm; design: dose 10 mg.Kg-1, dosed compound id 2.46809e+06, dosed compound name Doxorubicin, gender F, regimen Single, route intravenous, sampling time 48 h; settings: in vivo
[12] = AUC values (0-48 h) of 7-deoxydoxorubicin aglycone in plasma following single intravenous doxorubicin at 10 mg.Kg-1 dose in female mouse bearing colon tumor; assay type: ADME, organism-based, BALB/c; design: time < 48 hr, dose 10 mg.Kg-1, dosed compound id 2.46809e+06, dosed compound name Doxorubicin, gender F, regimen Single, route intravenous, sampling time 48 h; settings: in vivo
[13] = AUC values (0-48 h) of 7-deoxydoxorubicin aglycone in heart following single intravenous doxorubicin at 10 mg.Kg-1 dose in female mouse bearing colon tumor; assay type: ADME, organism-based, BALB/c; design: time < 48 hr, dose 10 mg.Kg-1, dosed compound id 2.46809e+06, dosed compound name Doxorubicin, gender F, regimen Single, route intravenous, sampling time 48 h; settings: in vivo
[14] = AUC values (0-48 h) of 7-deoxydoxorubicin aglycone in tumor following single intravenous doxorubicin at 10 mg.Kg-1 dose in female mouse bearing colon tumor; assay type: ADME, organism-based, BALB/c, Neoplasm; design: time < 48 hr, dose 10 mg.Kg-1, dosed compound id 2.46809e+06, dosed compound name Doxorubicin, gender F, regimen Single, route intravenous, sampling time 48 h; settings: in vivo
[15] = AUC values (0-48 h) of 7-deoxydoxorubicin aglycone in plasma following single intravenous epirubicin at 10 mg.Kg-1 dose in female mouse bearing colon tumor; assay type: ADME, organism-based, BALB/c; settings: in vivo
[16] = AUC values (0-48 h) of 7-deoxydoxorubicin aglycone in heart following single intravenous epirubicin at 10 mg.Kg-1 dose in female mouse bearing colon tumor; assay type: ADME, organism-based, BALB/c; settings: in vivo
[17] = AUC values (0-48 h) of 7-deoxydoxorubicin aglycone in tumor following single intravenous epirubicin at 10 mg.Kg-1 dose in female mouse bearing colon tumor; assay type: ADME, organism-based, BALB/c, Neoplasm; settings: in vivo
[18] = Terminal half-life of doxorubicinol following intravenous doxorubicinol at 1.27 mg.Kg-1 dose in dog; assay type: ADME, organism-based, Canis lupus familiaris, Beagle, Plasma; design: dose 1.27 mg.Kg-1, dosed compound id 2.4681e+06, dosed compound name Doxorubicinol, route intravenous; settings: in vivo
[19] = Recovery of doxorubicinol following intraperitoneal epirubicin at 4 mg.Kg-1 dose in mouse; assay type: ADME, organism-based, CD-1, Plasma; settings: in vivo, ip
[20] = Recovery of doxorubicinol following intravenous epirubicin at 4 mg.Kg-1 dose in rat; assay type: ADME, organism-based, SD, Plasma; settings: in vivo
[21] = Recovery of doxorubicinol following intraperitoneal epirubicin at 4 mg.Kg-1 dose in hamster; assay type: ADME, organism-based, Cricetulus griseus, Plasma; settings: chinese hamster, in vivo, ip
[22] = Recovery of doxorubicinol following intravenous epirubicin at 4 mg.Kg-1 dose in rabbit; assay type: ADME, organism-based, Oryctolagus cuniculus, New Zealand White, Plasma; settings: in vivo
[23] = Recovery of doxorubicinol following intravenous epirubicin at 1.5 mg.Kg-1 dose in man; assay type: ADME, organism-based, Plasma; settings: human, in vivo
[24] = Detection of doxorubicinol in plasma following single intravenous doxorubicin at 10 mg.Kg-1 dose in female mouse bearing colon tumor; assay type: ADME, organism-based, BALB/c; design: dose 10 mg.Kg-1, dosed compound id 2.46809e+06, dosed compound name Doxorubicin, gender F, regimen Single, route intravenous, sampling time 48 h; settings: in vivo
[25] = Detection of doxorubicinol in heart following single intravenous doxorubicin at 10 mg.Kg-1 dose in female mouse bearing colon tumor; assay type: ADME, organism-based, BALB/c; design: dose 10 mg.Kg-1, dosed compound id 2.46809e+06, dosed compound name Doxorubicin, gender F, regimen Single, route intravenous, sampling time 48 h; settings: in vivo
[26] = Detection of doxorubicinol in tumor following single intravenous doxorubicin at 10 mg.Kg-1 dose in female mouse bearing colon tumor; assay type: ADME, organism-based, BALB/c, Neoplasm; design: dose 10 mg.Kg-1, dosed compound id 2.46809e+06, dosed compound name Doxorubicin, gender F, regimen Single, route intravenous, sampling time 48 h; settings: in vivo
[27] = AUC values (0-48 h) of doxorubicinol in plasma following single intravenous doxorubicin at 10 mg.Kg-1 dose in female mouse bearing colon tumor; assay type: ADME, organism-based, BALB/c; design: time < 48 hr, dose 10 mg.Kg-1, dosed compound id 2.46809e+06, dosed compound name Doxorubicin, gender F, regimen Single, route intravenous, sampling time 48 h; settings: in vivo
[28] = AUC values (0-48 h) of doxorubicinol in heart following single intravenous doxorubicin at 10 mg.Kg-1 dose in female mouse bearing colon tumor; assay type: ADME, organism-based, BALB/c; design: time < 48 hr, dose 10 mg.Kg-1, dosed compound id 2.46809e+06, dosed compound name Doxorubicin, gender F, regimen Single, route intravenous, sampling time 48 h; settings: in vivo
[29] = AUC values (0-48 h) of doxorubicinol in tumor following single intravenous doxorubicin at 10 mg.Kg-1 dose in female mouse bearing colon tumor; assay type: ADME, organism-based, BALB/c, Neoplasm; design: time < 48 hr, dose 10 mg.Kg-1, dosed compound id 2.46809e+06, dosed compound name Doxorubicin, gender F, regimen Single, route intravenous, sampling time 48 h; settings: in vivo
[30] = (§1) Urinary elimination of adriamycinol following intravenous bolus adriamycin at 10 mg.Kg-1 dose in rat; assay type: ADME, organism-based, SD, Urine; design: dose 10 mg.Kg-1, dosed compound id 2.46809e+06, dosed compound name Doxorubicin, route intravenous, sampling time 0-6 h; settings: in vivo
[31] = as §1; assay type: ADME, organism-based, SD, Urine; design: dose 10 mg.Kg-1, dosed compound id 2.46809e+06, dosed compound name Doxorubicin, route intravenous, sampling time 0-24 h; settings: in vivo
[32] = as §1; assay type: ADME, organism-based, SD, Urine; design: dose 10 mg.Kg-1, dosed compound id 2.46809e+06, dosed compound name Doxorubicin, route intravenous, sampling time 0-60 h; settings: in vivo

- Compound recovery [1]: 0 10^-9M
- Compound recovery [2]: 0 10^-9M
- Compound recovery [3]: 1.3 10^-9M
- Compound recovery [4]: 0 10^-9M
- Compound recovery [5]: 14 10^-9M
- Compound recovery [6]: OUTCOME = Observed
- Compound recovery [7]: OUTCOME = Observed
- Compound recovery [8]: OUTCOME = Observed
- Compound recovery [9]: OUTCOME = Observed
- Compound recovery [10]: OUTCOME = Observed
- Compound recovery [11]: OUTCOME = Observed
- AUC [12]: 4.1 nmol·min/mL
- AUC [13]: 152 nmol·min/g
- AUC [14]: 135 nmol·min/g
- AUC [15]: 1.6 nmol·min/mL
- AUC [16]: 49 nmol·min/g
- AUC [17]: 11 nmol·min/g
SMILES: COc1cccc2c1C(=O)c1c(O)c3c(c(O)c1C2=O)C[C@@](O)(C(=O)CO)CC3

- t1/2 [18]: VALUE = Shorter than doxorubicin
- Compound recovery [19]: 0 10^-9M
- Compound recovery [20]: 0.6 10^-9M
- Compound recovery [21]: 0.1 10^-9M
- Compound recovery [22]: 0.3 10^-9M
- Compound recovery [23]: 1 10^-9M
- Compound recovery [24]: OUTCOME = Observed
- Compound recovery [25]: OUTCOME = Observed
- Compound recovery [26]: OUTCOME = Not detected/not observed
- AUC [27]: 1.7 nmol·min/mL
- AUC [28]: 228 nmol·min/g
- AUC [29]: 0 nmol·min/g
- Compound recovery [30]: 0.22%
- Compound recovery [31]: 0.26%
- Compound recovery [32]: 0.3%
SMILES: COc1cccc2c1C(=O)c1c(O)c3c(c(O)c1C2=O)C[C@@](O)(C(O)CO)C[C@@H]3O[C@H]1C[C@H](N)[C@H](O)[C@H](C)O1 (some centres not stated)
